Experimental findings from patent publication US12398092B2, “Method for inhibiting or disrupting biofilm formation, or reducing biofilm” (RAMOT AT TEL-AVIV UNIVERSITY LTD., priority 2015, dated 2025) are described below.

Holding throughout (format): cell-based
The test system of assay [1] is tested biofilm-forming Gram-positive pathogens. The assay can be described thus: Biofilm inhibition, statements over all tested strains. The conditions noted are these: highest concentration tested. The protocol: Analysis of biofilm inhibition. The assay was performed as previously described (Joseph et al., 2016; Feldman et al., 2012) with minor modifications. […] Next, 100 μL of serial 1:2 dilutions of compounds in TSB+1% glucose (32, 16, 8, 4, 2, 1, and 0.5 μg/mL) were prepared in flat-bottomed 96-well microplates (Costar, Corning). Control wells with no compounds and wells without bacteria containing each tested concentration of the compounds (blanks) were also prepared. An equal volume (100 μL) of bacterial suspensions diluted 1:100 (OD600=0.01) or 1:10 (OD600=0.1) in TSB+1% glucose was added to each well. […] The wells were vigorously rinsed at least four times with doubly distilled water (DDW). Next, 0.4% crystal violet (200 μL) was added to each well. After 45 min, wells were vigorously rinsed three times with DDW to remove unbound dye. After adding 200 μL of 30% acetic acid to each well, the plate was shaken for 15 min to release the dye. Biofilm formation was quantified by measuring the difference between absorbance of untreated and treated bacterial samples for each tested concentration of the compounds and the absorbance of appropriate blank well at 600 nm (A600) using Tecan plate reader. The MBIC50 was defined as the lowest concentration at which at least 50% reduction in biofilm formation was measured compared to untreated cells. […]

Another assay relates to S. aureus ATCC 29213. The assay can be described thus: Biofilm inhibition, crystal violet staining (MBIC50). The conditions noted are these: double-dilution method; Table 1; read-out: MBIC50, strain B. On the procedure:
(§1) Analysis of biofilm inhibition. The assay was performed as previously described (Joseph et al., 2016; Feldman et al., 2012) with minor modifications. […] Next, 100 μL of serial 1:2 dilutions of compounds in TSB+1% glucose (32, 16, 8, 4, 2, 1, and 0.5 μg/mL) were prepared in flat-bottomed 96-well microplates (Costar, Corning). Control wells with no compounds and wells without bacteria containing each tested concentration of the compounds (blanks) were also prepared. An equal volume (100 μL) of bacterial suspensions diluted 1:100 (OD600=0.01) or 1:10 (OD600=0.1) in TSB+1% glucose was added to each well. […] The wells were vigorously rinsed at least four times with doubly distilled water (DDW). Next, 0.4% crystal violet (200 μL) was added to each well. After 45 min, wells were vigorously rinsed three times with DDW to remove unbound dye. After adding 200 μL of 30% acetic acid to each well, the plate was shaken for 15 min to release the dye. Biofilm formation was quantified by measuring the difference between absorbance of untreated and treated bacterial samples for each tested concentration of the compounds and the absorbance of appropriate blank well at 600 nm (A600) using Tecan plate reader. The MBIC50 was defined as the lowest concentration at which at least 50% reduction in biofilm formation was measured compared to untreated cells. Each concentration of compound was tested in five replicates, and three to six independent experiments were performed.

A further assay has as its system S. aureus BAA/043. Described as above. The conditions noted are these: double-dilution method; Table 1; read-out: MBIC50, strain C. On the procedure: as §1
In another assay the test system is S. mutans ATCC 700610. Described as above. The conditions noted are these: double-dilution method; Table 1; read-out: MBIC50, strain F. The protocol: as §1
Assay [2] has as its system S. aureus subsp. aureus Rosenbach ATCC 33592 (MRSA). The assay is described as above. The conditions noted are these: double-dilution method; Table 1; read-out: MBIC50, strain A. On the procedure: as §1
For the next assay, the system named is S. epidermidis RP62A. The description is as above. The conditions noted are these: double-dilution method; Table 1; read-out: MBIC50, strain E. The protocol: as §1
A further assay concerns E. faecalis ATCC 29212. Described as above. The conditions noted are these: double-dilution method; Table 1; read-out: MBIC50, strain D. On the procedure:
as §1

For the next assay, the system named is mature biofilms. The assay can be described thus: Biofilm eradication. The note with it: mature 24-h-old biofilms. On the procedure:
Analysis of biofilm eradication. Biofilm eradication activity of the tested compounds determined against mature 24-h-old biofilms was performed as previously described (Pompilio et al., 2015). […] Untreated biofilm samples were used as control. Biofilms were quantified by measuring the absorbance at 600 nm. […] Concentrations were tested in five replicates, and three independent experiments were performed.

With `C[N+](C)(C)C.[Br-]` [TMA—Br, tetramethylammonium bromide], the “Biofilm formation: no inhibition up to (concentration)” value in assay [1] was above 292 µM. For the same compound, the IC50 (with S. aureus ATCC 29213; with S. aureus BAA/043; in the assay on S. mutans ATCC 700610; in assay [2]; in the assay on S. epidermidis RP62A; with E. faecalis ATCC 29212) was above 208 µM throughout.

On to `C[N+](C)(C)C.[Cl-]` [TMA—Cl, tetramethylammonium chloride], for which the “Biofilm formation: no inhibition up to (concentration)” value in assay [1] was above 208 µM. Moreover, the IC50 (in the assay on S. aureus ATCC 29213; in the assay with S. aureus BAA/043; with S. mutans ATCC 700610; in assay [2]; in the assay with S. epidermidis RP62A; in the assay on E. faecalis ATCC 29212) was above 292 µM in each case.

For “deca-N-methyl-imidazolium pillar[5]arene [Compound 22]”, the IC50 with S. aureus ATCC 29213 was 1.6 µM; in the assay on S. aureus BAA/043 it was 1.6 µM; in the assay with S. mutans ATCC 700610, 6.4 µM; in assay [2], 0.8 µM; in the assay with S. epidermidis RP62A it was 3.2 µM; in the assay on E. faecalis ATCC 29212 it was 0.4 µM.

As to “deca-trimethylammonium pillar[5]arene [Compound 21]”, in the assay on mature biofilms, the “Eradication of mature biofilms” value is reported as “did not eradicate mature biofilms”. For the same compound, the IC50 is 3.5 µM with S. aureus ATCC 29213; 3.5 µM in the assay on S. aureus BAA/043; 1.8 µM in the assay on S. mutans ATCC 700610; 0.9 µM in assay [2]; 3.5 µM with S. epidermidis RP62A; 0.9 µM with E. faecalis ATCC 29212.
